Data published in ChEMBL document CHEMBL1141723, “Specific targeting of metzincin family members with small-molecule inhibitors: progress toward a multifarious challenge” (Bioorg Med Chem, 2008).
Each block holds one molecule with its values, some of them ahead of it.

Columns and labels:
[1] = Selectivity for TACE over BMP1
[2] = Selectivity for TACE over MMP1
[3] = Selectivity for TACE over MMP7
[4] = Selectivity for TACE over ADAM10
[5] = Selectivity for TACE over MMP14
[6] = Selectivity for TACE over MMP2
[7] = Selectivity for TACE over MMP3
[8] = biological target: Stromelysin-1 (Homo sapiens, UniProt P08254)
Stromelysin-1, sequence (P08254 whole entry): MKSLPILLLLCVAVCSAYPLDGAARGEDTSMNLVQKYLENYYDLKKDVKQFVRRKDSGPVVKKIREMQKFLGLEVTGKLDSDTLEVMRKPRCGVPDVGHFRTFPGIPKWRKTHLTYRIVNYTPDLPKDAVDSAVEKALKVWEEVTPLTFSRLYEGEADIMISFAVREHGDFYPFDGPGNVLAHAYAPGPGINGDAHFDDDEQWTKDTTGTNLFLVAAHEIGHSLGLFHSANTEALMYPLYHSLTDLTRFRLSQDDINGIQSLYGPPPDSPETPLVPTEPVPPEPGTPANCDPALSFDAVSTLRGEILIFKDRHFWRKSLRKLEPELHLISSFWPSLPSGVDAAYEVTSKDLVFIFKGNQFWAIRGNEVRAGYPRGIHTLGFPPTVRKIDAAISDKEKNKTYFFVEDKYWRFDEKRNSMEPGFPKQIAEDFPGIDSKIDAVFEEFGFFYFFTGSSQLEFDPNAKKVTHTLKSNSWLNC

[9] = biological target: Matrix metalloproteinase-9 (Homo sapiens, UniProt P14780); assay: Inhibition of MMP9
Matrix metalloproteinase-9, sequence (P14780 whole entry): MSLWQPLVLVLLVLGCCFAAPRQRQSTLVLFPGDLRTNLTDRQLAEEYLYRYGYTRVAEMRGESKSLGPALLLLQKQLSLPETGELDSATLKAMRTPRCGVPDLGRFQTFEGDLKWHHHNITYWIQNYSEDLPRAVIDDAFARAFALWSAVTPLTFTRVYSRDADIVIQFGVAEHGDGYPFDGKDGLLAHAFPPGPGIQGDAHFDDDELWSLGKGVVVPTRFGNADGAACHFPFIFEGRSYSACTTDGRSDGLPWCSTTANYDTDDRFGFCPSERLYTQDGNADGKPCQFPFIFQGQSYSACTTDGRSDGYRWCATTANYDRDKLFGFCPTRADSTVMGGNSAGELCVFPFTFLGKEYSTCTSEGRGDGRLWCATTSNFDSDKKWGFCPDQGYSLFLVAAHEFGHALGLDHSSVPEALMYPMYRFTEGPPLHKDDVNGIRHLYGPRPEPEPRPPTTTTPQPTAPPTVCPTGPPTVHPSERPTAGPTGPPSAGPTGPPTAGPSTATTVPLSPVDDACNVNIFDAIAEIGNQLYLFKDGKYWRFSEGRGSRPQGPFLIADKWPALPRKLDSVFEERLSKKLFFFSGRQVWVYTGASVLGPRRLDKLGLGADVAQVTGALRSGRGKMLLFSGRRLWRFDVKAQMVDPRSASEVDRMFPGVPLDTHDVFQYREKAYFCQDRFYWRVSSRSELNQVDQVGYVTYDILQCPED

[10] = biological target: Matrix metalloproteinase-14 (Homo sapiens, UniProt P50281); assay: Inhibition of MMP14
[11] = biological target: 72 kDa type IV collagenase (Homo sapiens, UniProt P08253)
72 kDa type IV collagenase, sequence (P08253 whole entry): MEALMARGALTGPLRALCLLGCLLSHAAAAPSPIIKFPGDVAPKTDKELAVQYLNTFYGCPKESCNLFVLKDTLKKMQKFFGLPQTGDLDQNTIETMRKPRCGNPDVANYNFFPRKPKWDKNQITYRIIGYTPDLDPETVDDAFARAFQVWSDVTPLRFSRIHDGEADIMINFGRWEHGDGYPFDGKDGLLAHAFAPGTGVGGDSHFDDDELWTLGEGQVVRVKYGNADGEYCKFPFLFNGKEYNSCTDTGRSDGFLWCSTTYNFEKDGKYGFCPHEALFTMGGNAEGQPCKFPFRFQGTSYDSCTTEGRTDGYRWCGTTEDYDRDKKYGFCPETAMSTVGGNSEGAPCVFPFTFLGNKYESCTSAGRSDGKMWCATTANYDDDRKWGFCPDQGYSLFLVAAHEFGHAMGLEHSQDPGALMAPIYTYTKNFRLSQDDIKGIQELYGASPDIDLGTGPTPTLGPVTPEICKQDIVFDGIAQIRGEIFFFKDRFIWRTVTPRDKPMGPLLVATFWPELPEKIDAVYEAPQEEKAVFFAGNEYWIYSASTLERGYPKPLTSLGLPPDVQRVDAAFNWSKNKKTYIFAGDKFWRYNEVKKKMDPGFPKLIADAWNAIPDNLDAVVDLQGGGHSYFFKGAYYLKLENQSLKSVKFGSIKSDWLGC

[12] = biological target: T1, Interstitial collagenase (Homo sapiens, UniProt P03956)
T1 sequence (P03956 whole entry): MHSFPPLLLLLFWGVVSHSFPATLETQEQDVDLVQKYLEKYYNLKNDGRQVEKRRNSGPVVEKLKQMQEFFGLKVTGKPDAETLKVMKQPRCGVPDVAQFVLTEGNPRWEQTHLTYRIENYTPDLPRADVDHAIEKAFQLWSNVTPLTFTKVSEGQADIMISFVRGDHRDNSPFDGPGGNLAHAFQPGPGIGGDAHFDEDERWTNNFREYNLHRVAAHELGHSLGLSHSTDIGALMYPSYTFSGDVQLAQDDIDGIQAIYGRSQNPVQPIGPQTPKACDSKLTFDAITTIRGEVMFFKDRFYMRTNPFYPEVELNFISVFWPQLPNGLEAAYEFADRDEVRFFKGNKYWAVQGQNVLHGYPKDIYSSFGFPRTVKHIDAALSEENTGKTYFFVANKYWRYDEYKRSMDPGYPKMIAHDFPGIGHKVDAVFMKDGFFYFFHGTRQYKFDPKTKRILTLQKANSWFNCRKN

[13] = Selectivity for pig TACE over MMP7
[14] = Selectivity for pig TACE over MMP2
[15] = Selectivity for pig TACE over MMP1
[16] = Selectivity for pig TACE over MMP9
[17] = Selectivity for pig TACE over MMP3
[18] = Selectivity for pig TACE over MMP8
[19] = biological target: Macrophage metalloelastase (Homo sapiens, UniProt P39900); assay: Inhibition of MMP12
Macrophage metalloelastase, sequence (P39900 whole entry): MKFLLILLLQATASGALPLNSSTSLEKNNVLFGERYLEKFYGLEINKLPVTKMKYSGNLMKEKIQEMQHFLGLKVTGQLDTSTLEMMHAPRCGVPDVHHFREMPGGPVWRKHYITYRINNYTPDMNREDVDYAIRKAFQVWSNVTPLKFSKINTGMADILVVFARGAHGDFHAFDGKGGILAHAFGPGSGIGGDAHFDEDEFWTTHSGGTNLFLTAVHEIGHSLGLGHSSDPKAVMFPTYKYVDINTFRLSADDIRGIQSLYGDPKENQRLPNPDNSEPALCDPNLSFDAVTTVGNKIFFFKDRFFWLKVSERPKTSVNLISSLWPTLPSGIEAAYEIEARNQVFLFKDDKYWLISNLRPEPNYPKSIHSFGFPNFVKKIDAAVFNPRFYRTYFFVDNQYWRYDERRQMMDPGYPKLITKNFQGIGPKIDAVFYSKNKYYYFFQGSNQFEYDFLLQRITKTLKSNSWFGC

[20] = biological target: Collagenase 3 (Homo sapiens, UniProt P45452); assay: Inhibition of MMP13
[21] = biological target: T2, Disintegrin and metalloproteinase domain-containing protein 10 (Homo sapiens, UniProt O14672); assay: Inhibition of ADAM10
T2 sequence (O14672 whole entry): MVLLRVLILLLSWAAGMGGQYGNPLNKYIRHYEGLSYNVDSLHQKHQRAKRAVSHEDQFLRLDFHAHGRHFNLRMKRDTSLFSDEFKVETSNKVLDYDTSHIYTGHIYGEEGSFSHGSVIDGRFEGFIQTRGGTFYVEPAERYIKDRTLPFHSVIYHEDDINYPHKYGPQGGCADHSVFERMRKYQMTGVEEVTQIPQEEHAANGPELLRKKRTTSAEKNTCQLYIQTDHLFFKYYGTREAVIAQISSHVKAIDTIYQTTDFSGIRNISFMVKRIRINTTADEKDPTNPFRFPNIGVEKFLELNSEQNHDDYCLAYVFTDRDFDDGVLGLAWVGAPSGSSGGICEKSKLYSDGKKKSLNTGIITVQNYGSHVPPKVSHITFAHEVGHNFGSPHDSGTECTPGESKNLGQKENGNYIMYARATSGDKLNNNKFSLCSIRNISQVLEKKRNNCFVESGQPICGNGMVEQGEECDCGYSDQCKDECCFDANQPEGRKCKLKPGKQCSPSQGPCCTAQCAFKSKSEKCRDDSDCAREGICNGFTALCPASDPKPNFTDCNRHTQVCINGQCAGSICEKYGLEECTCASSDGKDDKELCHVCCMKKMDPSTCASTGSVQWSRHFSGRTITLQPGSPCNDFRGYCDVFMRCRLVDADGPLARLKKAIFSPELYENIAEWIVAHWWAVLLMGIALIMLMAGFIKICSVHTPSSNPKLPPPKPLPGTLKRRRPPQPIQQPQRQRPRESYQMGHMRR

[22] = Inhibition of bovine aggrecanase; parameters: species or system Bos taurus
[23] = biological target: Disintegrin and metalloproteinase domain-containing protein 17 (Homo sapiens, UniProt P78536); assay: Inhibition of TACE
Disintegrin and metalloproteinase domain-containing protein 17 (Homo sapiens, UniProt P78536), sequence (P78536 whole entry, the tested form may be a part): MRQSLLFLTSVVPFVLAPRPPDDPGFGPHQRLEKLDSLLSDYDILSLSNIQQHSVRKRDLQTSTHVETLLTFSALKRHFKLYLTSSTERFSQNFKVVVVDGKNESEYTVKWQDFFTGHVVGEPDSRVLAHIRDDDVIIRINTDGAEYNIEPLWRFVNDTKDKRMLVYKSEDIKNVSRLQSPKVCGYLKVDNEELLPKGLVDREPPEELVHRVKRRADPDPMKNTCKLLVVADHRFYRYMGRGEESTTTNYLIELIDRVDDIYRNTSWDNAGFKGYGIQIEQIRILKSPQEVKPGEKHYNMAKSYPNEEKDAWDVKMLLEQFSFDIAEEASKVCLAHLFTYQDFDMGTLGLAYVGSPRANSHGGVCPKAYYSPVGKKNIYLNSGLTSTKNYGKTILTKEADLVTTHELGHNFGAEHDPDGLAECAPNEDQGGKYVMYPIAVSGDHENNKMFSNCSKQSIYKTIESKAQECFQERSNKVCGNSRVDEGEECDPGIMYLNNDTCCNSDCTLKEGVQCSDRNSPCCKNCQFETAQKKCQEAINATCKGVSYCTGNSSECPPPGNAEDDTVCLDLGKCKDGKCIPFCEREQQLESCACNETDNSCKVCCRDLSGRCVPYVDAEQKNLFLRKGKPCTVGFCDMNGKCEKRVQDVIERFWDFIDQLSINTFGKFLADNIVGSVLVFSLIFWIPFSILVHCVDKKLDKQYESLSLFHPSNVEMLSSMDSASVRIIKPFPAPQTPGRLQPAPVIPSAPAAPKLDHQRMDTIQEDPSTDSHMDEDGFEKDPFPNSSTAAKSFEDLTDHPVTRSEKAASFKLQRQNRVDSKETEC

[24] = biological target: Neutrophil collagenase (Homo sapiens, UniProt P22894); assay: Inhibition of MMP8
Neutrophil collagenase, sequence (P22894 whole entry): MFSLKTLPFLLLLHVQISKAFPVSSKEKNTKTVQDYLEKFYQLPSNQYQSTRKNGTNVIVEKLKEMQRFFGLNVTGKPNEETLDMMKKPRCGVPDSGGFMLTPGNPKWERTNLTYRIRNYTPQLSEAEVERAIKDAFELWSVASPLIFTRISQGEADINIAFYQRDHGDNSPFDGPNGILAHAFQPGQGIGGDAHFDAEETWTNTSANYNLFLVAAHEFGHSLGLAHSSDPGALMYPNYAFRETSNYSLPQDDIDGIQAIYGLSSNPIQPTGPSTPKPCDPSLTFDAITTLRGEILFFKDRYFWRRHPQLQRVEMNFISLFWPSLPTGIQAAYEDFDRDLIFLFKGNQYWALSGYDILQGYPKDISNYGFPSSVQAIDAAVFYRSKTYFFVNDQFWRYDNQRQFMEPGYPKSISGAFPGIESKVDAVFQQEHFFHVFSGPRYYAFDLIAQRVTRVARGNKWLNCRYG

[25] = biological target: T3, Matrilysin (Homo sapiens, UniProt P09237)
T3 sequence (P09237 whole entry): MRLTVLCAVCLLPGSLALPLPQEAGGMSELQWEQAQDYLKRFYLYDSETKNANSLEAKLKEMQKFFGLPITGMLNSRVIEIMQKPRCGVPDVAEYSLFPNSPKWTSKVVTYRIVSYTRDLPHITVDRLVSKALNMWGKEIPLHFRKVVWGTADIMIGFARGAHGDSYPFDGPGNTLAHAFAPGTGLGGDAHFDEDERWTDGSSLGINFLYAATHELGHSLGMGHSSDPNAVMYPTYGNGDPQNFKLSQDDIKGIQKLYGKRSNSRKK

[26] = biological target: Disintegrin and metalloproteinase domain-containing protein 17 (Sus scrofa, UniProt O77636); assay: Inhibition of pig TACE
Disintegrin and metalloproteinase domain-containing protein 17 (Sus scrofa, UniProt O77636), sequence (O77636 whole entry, the tested form may be a part): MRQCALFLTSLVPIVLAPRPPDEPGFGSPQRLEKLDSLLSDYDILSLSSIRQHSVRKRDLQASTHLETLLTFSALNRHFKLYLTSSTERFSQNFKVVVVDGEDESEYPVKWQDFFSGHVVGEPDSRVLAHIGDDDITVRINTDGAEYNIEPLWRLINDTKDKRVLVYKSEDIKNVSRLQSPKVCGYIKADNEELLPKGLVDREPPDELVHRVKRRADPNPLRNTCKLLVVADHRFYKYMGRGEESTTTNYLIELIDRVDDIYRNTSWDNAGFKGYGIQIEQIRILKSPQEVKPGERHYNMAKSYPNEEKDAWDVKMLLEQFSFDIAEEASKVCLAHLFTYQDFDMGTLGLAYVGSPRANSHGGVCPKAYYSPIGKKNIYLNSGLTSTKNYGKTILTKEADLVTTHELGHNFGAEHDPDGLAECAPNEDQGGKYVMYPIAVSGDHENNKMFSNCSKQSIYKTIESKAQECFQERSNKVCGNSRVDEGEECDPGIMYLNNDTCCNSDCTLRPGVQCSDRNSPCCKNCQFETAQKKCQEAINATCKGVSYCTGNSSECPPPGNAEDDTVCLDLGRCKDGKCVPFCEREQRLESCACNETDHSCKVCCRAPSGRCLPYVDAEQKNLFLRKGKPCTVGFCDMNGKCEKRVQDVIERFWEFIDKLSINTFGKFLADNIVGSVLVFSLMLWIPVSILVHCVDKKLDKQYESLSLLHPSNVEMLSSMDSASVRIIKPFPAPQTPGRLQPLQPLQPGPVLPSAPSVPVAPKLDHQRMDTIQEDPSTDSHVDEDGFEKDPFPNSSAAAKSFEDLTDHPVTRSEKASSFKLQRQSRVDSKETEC

[27] = biological target: T4, Interstitial collagenase (Homo sapiens) (UniProt P03956); assay: Inhibition of MMP1 at 100 uM
T4 sequence (whole entry): T1 sequence (P03956 whole entry)

fold change (FC) [1]: 2200
fold change (FC) [2]: > 12500
fold change (FC) [3]: 200
fold change (FC) [4]: > 7000
fold change (FC) [5]: 1800
fold change (FC) [6]: 1100
fold change (FC) [7]: 100
SMILES: COC(=O)[C@@]1(Cc2ccc(OCc3cc(C)nc4ccccc34)cc2)C[C@@H]1C(=O)NO

IC50 [8]: 2.1 nM
IC50 [9]: 560 nM
IC50 [10]: 930 nM
IC50 [11]: 750 nM
IC50 [12]: 5900 nM
SMILES: COC[C@@H](NC(=O)[C@@H](NC(=O)[C@H](CCCc1ccc(-c2ccccc2)c(C)c1)CC(=O)NO)C(C)(C)C)c1ccccc1

fold change (FC) [13]: 200
fold change (FC) [14]: > 30000
fold change (FC) [15]: > 30000
fold change (FC) [16]: > 14000
fold change (FC) [17]: 427
fold change (FC) [18]: 5500
SMILES: Cc1cc(COc2ccc(C(=O)N[C@@H]3CCOC[C@@H]3C(=O)NO)cc2)c2ccccc2n1

IC50 [19]: > 22000 nM
IC50 [20]: > 100000 nM
SMILES: COc1ccc(C2=NNC3(S2)C(=O)N(Cc2ccccc2)c2ccc(C)cc23)cc1 (stereo not drawn)

IC50 [8]: > 5000 nM
IC50 [9]: > 5000 nM
IC50 [11]: > 5000 nM
IC50 [21]: 26 nM
IC50 [12]: > 5000 nM
SMILES: Cc1cc(C#N)ccc1N1CCN(S(=O)(=O)CC2(C(=O)NO)CCN(C(=O)O[C@@H]3CCOC3)CC2)CC1

Ki [8]: > 4500 nM
IC50 [22]: 8 nM
Ki [9]: < 1 nM
Ki [20]: > 5000 nM
Ki [11]: > 3000 nM
Ki [12]: 5250 nM
SMILES: CC1(CN[C@H](C(=O)NO)[C@@H](Cc2cccc(O)c2)C(=O)N[C@H]2c3ccccc3C[C@H]2O)CC1

IC50 [8]: 81 nM
IC50 [23]: > 25000 nM
IC50 [24]: 42 nM
IC50 [12]: > 400000 nM
SMILES: COc1c(Br)ccc2oc(COc3ccc(-c4ccc(S(=O)(=O)N[C@@H](C(=O)O)C(C)C)cc4)cc3)c(C)c12

SMILES: CC#CCOc1ccc(S(=O)(=O)N[C@@H](C(=O)NO)[C@H](C)O)cc1
IC50 [9]: 777 nM
IC50 [23]: 2 nM
IC50 [20]: 96 nM
IC50 [24]: 35 nM
IC50 [25]: 961 nM
IC50 [10]: 582 nM
IC50 [21]: 1090 nM
IC50 [12]: 2470 nM

IC50 [19]: 564 nM
IC50 [23]: 2040 nM
IC50 [21]: 97 nM
SMILES: CN1CC2(CC2)C[C@H](C(=O)NO)[C@H]1C(=O)N1CCN(c2ccc(C(F)(F)F)cn2)CC1

IC50 [8]: > 20000 nM
SMILES: CCCN1C(=O)[C@H](CS)NC(=O)[C@@H]1Cc1ccc([N+](=O)[O-])cc1

IC50 [8]: 390 nM
IC50 [9]: 980 nM
IC50 [24]: 1700 nM
IC50 [11]: > 100000 nM
SMILES: O=C(O)C[C@@H](NC(=O)c1cc(-c2ccc(-c3ccncc3)cc2)cs1)c1ccccc1

IC50 [24]: > 100000 nM
IC50 [10]: > 100000 nM
IC50 [12]: > 100000 nM
SMILES: Cc1cc(COc2ccc(S(=O)(=O)CC(C=C3CCN(CC(C)C)CC3)N(O)C=O)cc2)c2ccccc2n1 (stereo not drawn)

SMILES: Cc1cc(COc2ccc(C(=O)Nc3ccccc3C(=O)c3c[nH]c(=O)[nH]3)cc2)c2ccccc2n1
IC50 [26]: 9 nM
Ki [25]: > 636 nM

SMILES: O=S(=O)(CC1CS1)c1ccc(Oc2ccccc2)cc1 (stereo not drawn)
Ki [23]: 3700 nM

Ki [9]: > 2130 nM
IC50 [26]: 6.2 nM
Ki [11]: > 3330 nM
Ki [12]: > 4950 nM
SMILES: Cc1cc(COc2ccc(NC(=O)[C@H]3[C@H](C(=O)NO)CCCN3C)cc2)c2ccccc2n1

inhibition [27]: 20%
SMILES: COC[C@@H](NC(=O)[C@@H](NC(=O)[C@H](CCCc1ccc(-c2ccccc2)c(C)c1)CC(=O)O)C(C)(C)C)c1ccccc1

IC50 [11]: > 50000 nM
IC50 [12]: > 50000 nM
SMILES: Cc1cc(=O)c(O)c(C(=O)NCc2ccc(-c3ccc(-c4ccccc4)cc3)cc2)o1

fold change (FC) [1]: 1400
fold change (FC) [2]: > 8300
fold change (FC) [3]: > 8300
fold change (FC) [4]: 4
fold change (FC) [5]: 770
fold change (FC) [6]: 3400
fold change (FC) [7]: 1300
SMILES: COC(=O)[C@]1(c2cccc(OCc3cc(C)nc4ccccc34)c2)C[C@H]1C(=O)NO

IC50 [22]: 12 nM
SMILES: O=C(NO)[C@@H](NCC1CC1)[C@@H](Cc1cccc(O)c1)C(=O)N[C@H]1c2ccccc2C[C@H]1O

IC50 [9]: 5500 nM
IC50 [23]: 2.2 nM
IC50 [20]: 2280 nM
IC50 [10]: 24000 nM
IC50 [11]: 664 nM
IC50 [12]: 37300 nM
SMILES: CC#CCOc1ccc(S(=O)(=O)CC2(C(=O)NO)CCN(c3c(C)noc3C)CC2)cc1
